# Assay results from PubChem BioAssay (NCI).
#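 96-well plates; 48 h exposure; 5 concentrations. Endpoints by linear interpolation between flanking doses. Not reached: highest tested concentration assigned. TGI is the concentration that stops growth completely.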
# Assays:
# Assay in all cases: NCI-60 cell line screen, 48 h
# HT29 colon = system: HT29 colon
# MDA-N = system: MDA-N
# MOLT-4 leukemia = system: MOLT-4 leukemia
# HCT-15 colon = system: HCT-15 colon
# SK-MEL-28 melanoma = system: SK-MEL-28 melanoma
# MDA-MB-231 breast = system: MDA-MB-231 breast
# SNB-75 CNS = system: SNB-75 CNS
# COLO 205 colon = system: COLO 205 colon
# HCT-116 colon = system: HCT-116 colon
# T-47D breast = system: T-47D breast
# SF-295 CNS = system: SF-295 CNS
# HS 578T breast = system: HS 578T breast
# SK-OV-3 ovarian = system: SK-OV-3 ovarian
# NCI-H23 lung = system: NCI-H23 lung
# M14 melanoma = system: M14 melanoma
# UACC-257 melanoma = system: UACC-257 melanoma
# CAKI-1 renal = system: CAKI-1 renal
# LOX IMVI melanoma = system: LOX IMVI melanoma
# TK-10 renal = system: TK-10 renal
# SW-620 colon = system: SW-620 colon
# SF-268 CNS = system: SF-268 CNS
# EKVX NSCLC = system: EKVX NSCLC
# MALME-3M melanoma = system: MALME-3M melanoma
# DU-145 prostate = system: DU-145 prostate
# KM12 colon = system: KM12 colon
# NCI-H226 lung = system: NCI-H226 lung
# OVCAR-8 ovarian = system: OVCAR-8 ovarian
# IGROV1 ovarian = system: IGROV1 ovarian
# PC-3 prostate = system: PC-3 prostate
# SK-MEL-5 melanoma = system: SK-MEL-5 melanoma
# UO-31 renal = system: UO-31 renal
# RPMI-8226 leukemia = system: RPMI-8226 leukemia
# HOP-62 NSCLC = system: HOP-62 NSCLC
# MCF7 breast = system: MCF7 breast
# HCC-2998 colon = system: HCC-2998 colon
# NCI-H522 lung = system: NCI-H522 lung
# UACC-62 melanoma = system: UACC-62 melanoma
# SNB-19 CNS = system: SNB-19 CNS
# MDA-MB-435 = system: MDA-MB-435
# 786-0 renal = system: 786-0 renal
# BT-549 breast = system: BT-549 breast
# CCRF-CEM leukemia = system: CCRF-CEM leukemia
# A549 NSCLC = system: A549 NSCLC
# SF-539 CNS = system: SF-539 CNS
# HL-60(TB) leukemia = system: HL-60(TB) leukemia
# SK-MEL-2 melanoma = system: SK-MEL-2 melanoma
# K-562 leukemia = system: K-562 leukemia
# SR leukemia = system: SR leukemia
# OVCAR-5 ovarian = system: OVCAR-5 ovarian
# RXF 393 renal = system: RXF 393 renal
# OVCAR-4 ovarian = system: OVCAR-4 ovarian
# SN12C renal = system: SN12C renal
# U251 CNS = system: U251 CNS
# NCI/ADR-RES ovarian = system: NCI/ADR-RES ovarian
# A498 renal = system: A498 renal
# OVCAR-3 ovarian = system: OVCAR-3 ovarian
# NCI-H460 lung = system: NCI-H460 lung
# HOP-92 NSCLC = system: HOP-92 NSCLC
structure (smiles),measurement,setting,value
O=C1C(=Cc2ccc(O)cc2)N=C(c2ccccc2)N1n1c(-c2ccccc2)nc2ccccc2c1=O,TGI,HT29 colon,> 100 µM
same,TGI,MDA-N,> 100 µM
same,TGI,MOLT-4 leukemia,> 100 µM
same,TGI,HCT-15 colon,> 100 µM
same,TGI,SK-MEL-28 melanoma,> 100 µM
same,TGI,MDA-MB-231 breast,> 100 µM
same,TGI,SNB-75 CNS,> 100 µM
same,TGI,COLO 205 colon,> 100 µM
same,TGI,HCT-116 colon,> 100 µM
same,TGI,T-47D breast,> 100 µM
same,TGI,SF-295 CNS,> 100 µM
same,TGI,HS 578T breast,> 100 µM
same,TGI,SK-OV-3 ovarian,> 100 µM
same,TGI,NCI-H23 lung,> 100 µM
same,TGI,M14 melanoma,> 100 µM
same,TGI,UACC-257 melanoma,> 100 µM
same,TGI,CAKI-1 renal,> 100 µM
same,TGI,LOX IMVI melanoma,> 100 µM
same,TGI,TK-10 renal,> 100 µM
same,TGI,SW-620 colon,> 100 µM
same,TGI,SF-268 CNS,> 100 µM
same,TGI,EKVX NSCLC,> 100 µM
same,TGI,MALME-3M melanoma,> 100 µM
same,TGI,DU-145 prostate,> 100 µM
same,TGI,KM12 colon,> 100 µM
same,TGI,NCI-H226 lung,> 100 µM
same,TGI,OVCAR-8 ovarian,> 100 µM
same,TGI,IGROV1 ovarian,> 100 µM
same,TGI,PC-3 prostate,> 100 µM
same,TGI,SK-MEL-5 melanoma,> 100 µM
same,TGI,UO-31 renal,> 100 µM
same,TGI,RPMI-8226 leukemia,> 100 µM
same,TGI,HOP-62 NSCLC,> 100 µM
same,TGI,MCF7 breast,> 100 µM
same,TGI,HCC-2998 colon,> 100 µM
same,TGI,NCI-H522 lung,> 100 µM
same,TGI,UACC-62 melanoma,> 100 µM
same,TGI,SNB-19 CNS,> 100 µM
same,TGI,MDA-MB-435,> 100 µM
same,TGI,786-0 renal,> 100 µM
same,TGI,BT-549 breast,> 100 µM
same,TGI,CCRF-CEM leukemia,> 100 µM
same,TGI,A549 NSCLC,> 100 µM
same,TGI,SF-539 CNS,> 100 µM
same,TGI,HL-60(TB) leukemia,> 100 µM
CC[C@@]1(O)C(=O)OCc2c1cc1n(c2=O)Cc2c-1nc1ccccc1c2/C=N\NC(=O)CN,TGI,HT29 colon,> 49.7 µM
same,TGI,MDA-N,> 100 µM
same,TGI,MOLT-4 leukemia,0.368 µM
same,TGI,HCT-15 colon,> 100 µM
same,TGI,SK-MEL-28 melanoma,> 100 µM
same,TGI,MDA-MB-231 breast,> 100 µM
same,TGI,SK-MEL-2 melanoma,> 100 µM
same,TGI,SNB-75 CNS,6.21 µM
same,TGI,K-562 leukemia,> 100 µM
same,TGI,COLO 205 colon,> 100 µM
same,TGI,HCT-116 colon,16.1 µM
same,TGI,T-47D breast,> 20.3 µM
same,TGI,SF-295 CNS,6.13 µM
same,TGI,HS 578T breast,> 100 µM
same,TGI,NCI-H23 lung,1.04 µM
same,TGI,SR leukemia,0.464 µM
same,TGI,UACC-257 melanoma,> 60.8 µM
same,TGI,LOX IMVI melanoma,1.36 µM
same,TGI,TK-10 renal,> 100 µM
same,TGI,SW-620 colon,> 100 µM
same,TGI,OVCAR-5 ovarian,> 100 µM
same,TGI,RXF 393 renal,7.66 µM
same,TGI,SF-268 CNS,16.7 µM
same,TGI,OVCAR-4 ovarian,> 100 µM
same,TGI,EKVX NSCLC,> 100 µM
same,TGI,MALME-3M melanoma,> 91.6 µM
same,TGI,KM12 colon,> 100 µM
same,TGI,NCI-H226 lung,3.54 µM
same,TGI,OVCAR-8 ovarian,> 95.5 µM
same,TGI,IGROV1 ovarian,> 66.7 µM
same,TGI,PC-3 prostate,> 100 µM
same,TGI,SK-MEL-5 melanoma,1.88 µM
same,TGI,UO-31 renal,5.38 µM
same,TGI,RPMI-8226 leukemia,18.8 µM
same,TGI,HOP-62 NSCLC,3.73 µM
same,TGI,MCF7 breast,> 64 µM
same,TGI,HCC-2998 colon,> 47.4 µM
same,TGI,SN12C renal,> 100 µM
same,TGI,NCI-H522 lung,35.5 µM
same,TGI,UACC-62 melanoma,0.842 µM
same,TGI,U251 CNS,> 61.5 µM
same,TGI,NCI/ADR-RES ovarian,> 76.5 µM
same,TGI,A498 renal,3.76 µM
same,TGI,OVCAR-3 ovarian,> 91 µM
same,TGI,MDA-MB-435,41.5 µM
same,TGI,786-0 renal,5.7 µM
same,TGI,BT-549 breast,> 95.4 µM
same,TGI,A549 NSCLC,> 100 µM
same,TGI,NCI-H460 lung,4.66 µM
same,TGI,HOP-92 NSCLC,21.8 µM
same,TGI,SF-539 CNS,0.127 µM
same,TGI,HL-60(TB) leukemia,> 100 µM
